Data: patent publication US20150099800A1, “NOVEL LIPASE INHIBITORS, REPORTER SUBSTRATES AND USES THEREOF” (Northeastern University, priority 2012, published 2015)
Like-named read-outs stand apart in the source and are kept apart here.

Columns and labels:
[1] = Stability of FRET reporter substrates to uncatalyzed hydrolysis; type: physicochemical
Text: (§1) A convenient in vitro fluorometric esterase assay utilizing the BioTek Instruments Synergy™ HT Multi-Mode Microplate 96-well reader was developed that measured nanomolar concentrations of fluorescent reaction product.

hDAGLα [2] = molecular target: T1, hDAGLα (Homo sapiens, UniProt Q9Y4D2); test: Evaluation of FRET reporter substrates for enzymatic hydrolysis; type: biochemical; parameters: V5; His; expressed in transfected cells; host or cells: HEK293T, transient; crude cell lysate or membrane preparation
T1 sequence (Q9Y4D2 1-1042): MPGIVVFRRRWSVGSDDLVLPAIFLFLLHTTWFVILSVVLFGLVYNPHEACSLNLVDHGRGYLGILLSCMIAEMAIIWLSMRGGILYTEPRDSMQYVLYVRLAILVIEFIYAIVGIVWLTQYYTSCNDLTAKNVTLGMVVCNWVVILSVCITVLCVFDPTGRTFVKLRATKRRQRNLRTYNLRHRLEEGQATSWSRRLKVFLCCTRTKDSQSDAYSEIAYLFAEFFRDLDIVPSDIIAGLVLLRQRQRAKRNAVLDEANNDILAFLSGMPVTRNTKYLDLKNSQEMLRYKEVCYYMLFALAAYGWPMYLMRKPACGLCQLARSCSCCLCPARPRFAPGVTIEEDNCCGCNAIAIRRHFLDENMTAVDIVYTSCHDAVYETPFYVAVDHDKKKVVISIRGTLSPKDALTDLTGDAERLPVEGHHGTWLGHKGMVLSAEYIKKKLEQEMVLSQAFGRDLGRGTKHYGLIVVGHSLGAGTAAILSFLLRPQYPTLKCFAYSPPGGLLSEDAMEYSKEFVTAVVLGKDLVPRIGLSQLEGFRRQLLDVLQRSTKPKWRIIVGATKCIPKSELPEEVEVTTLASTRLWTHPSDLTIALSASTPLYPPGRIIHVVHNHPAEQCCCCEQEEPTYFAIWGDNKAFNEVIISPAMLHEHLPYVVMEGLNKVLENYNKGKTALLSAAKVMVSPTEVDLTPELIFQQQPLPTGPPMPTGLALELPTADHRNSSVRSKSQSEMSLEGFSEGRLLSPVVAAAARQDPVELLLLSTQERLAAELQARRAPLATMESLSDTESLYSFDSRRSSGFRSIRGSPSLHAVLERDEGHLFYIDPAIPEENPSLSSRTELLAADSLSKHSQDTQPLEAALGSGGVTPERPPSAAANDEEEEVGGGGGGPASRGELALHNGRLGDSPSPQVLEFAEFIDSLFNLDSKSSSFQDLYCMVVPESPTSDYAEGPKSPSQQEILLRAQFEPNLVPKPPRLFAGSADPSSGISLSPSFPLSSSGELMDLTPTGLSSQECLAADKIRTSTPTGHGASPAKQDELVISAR
Text: Reporter compounds as substrates for hDAGLα activity with HEK293T cell lysates in the presence of 10% DMSO are shown. A) Pyrenyl analogs (17)-(19), (21), and (22) (EX 320 nm, EM 400 nm). B) NBD analog (20) (EX 485 nm, EM 535 nm).
as §1

[3] = system: Lipoprotein Lipase (Bacterial); type: biochemical, Pseudomonas sp.
[4] = molecular target: T2, Pancreatic Lipase (Porcine) (Sus scrofa, UniProt P00591); type: biochemical; conditions: read-out: Pancreatic Lipase (Porcine) inhibition at 10 μM (%)
T2 construct: purchased Sigma L3126
T2 sequence (P00591 1-450): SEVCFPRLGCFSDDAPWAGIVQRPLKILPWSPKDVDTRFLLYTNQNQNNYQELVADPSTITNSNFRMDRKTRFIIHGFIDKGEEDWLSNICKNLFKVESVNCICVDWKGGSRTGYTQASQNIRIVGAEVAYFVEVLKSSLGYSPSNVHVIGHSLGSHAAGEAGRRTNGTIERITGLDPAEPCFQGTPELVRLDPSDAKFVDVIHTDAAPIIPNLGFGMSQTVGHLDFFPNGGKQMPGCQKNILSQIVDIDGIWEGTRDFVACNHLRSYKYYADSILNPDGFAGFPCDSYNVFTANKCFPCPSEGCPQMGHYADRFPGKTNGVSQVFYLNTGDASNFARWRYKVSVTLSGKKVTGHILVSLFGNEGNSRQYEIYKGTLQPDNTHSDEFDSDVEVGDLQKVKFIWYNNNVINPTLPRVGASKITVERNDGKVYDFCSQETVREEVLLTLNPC

cannabinoid receptors = conditions: cited from earlier work
MAGL [5] = molecular target: T3, MAGL (Homo sapiens, UniProt Q99685); conditions: cited from earlier work
T3 sequence (Q99685 1-303): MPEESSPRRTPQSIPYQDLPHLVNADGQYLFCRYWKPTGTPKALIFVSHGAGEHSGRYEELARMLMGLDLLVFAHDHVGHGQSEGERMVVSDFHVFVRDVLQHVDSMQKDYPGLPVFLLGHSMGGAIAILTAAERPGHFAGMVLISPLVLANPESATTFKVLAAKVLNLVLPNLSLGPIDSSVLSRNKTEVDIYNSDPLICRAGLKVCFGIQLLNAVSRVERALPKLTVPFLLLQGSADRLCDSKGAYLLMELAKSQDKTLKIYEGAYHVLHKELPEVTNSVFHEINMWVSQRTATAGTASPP

hDAGLα [6] = molecular target: T1, hDAGLα; test: biochemical
mDAGLα = molecular target: T4, mDAGLα (Mus musculus, UniProt Q6WQJ1); test: Radio-TLC assay with [14C]SAG substrate, mDAGLα; conditions: read-out: mDAGLα inhibition at 10000 nM (%)
T4 sequence (Q6WQJ1 1-1044): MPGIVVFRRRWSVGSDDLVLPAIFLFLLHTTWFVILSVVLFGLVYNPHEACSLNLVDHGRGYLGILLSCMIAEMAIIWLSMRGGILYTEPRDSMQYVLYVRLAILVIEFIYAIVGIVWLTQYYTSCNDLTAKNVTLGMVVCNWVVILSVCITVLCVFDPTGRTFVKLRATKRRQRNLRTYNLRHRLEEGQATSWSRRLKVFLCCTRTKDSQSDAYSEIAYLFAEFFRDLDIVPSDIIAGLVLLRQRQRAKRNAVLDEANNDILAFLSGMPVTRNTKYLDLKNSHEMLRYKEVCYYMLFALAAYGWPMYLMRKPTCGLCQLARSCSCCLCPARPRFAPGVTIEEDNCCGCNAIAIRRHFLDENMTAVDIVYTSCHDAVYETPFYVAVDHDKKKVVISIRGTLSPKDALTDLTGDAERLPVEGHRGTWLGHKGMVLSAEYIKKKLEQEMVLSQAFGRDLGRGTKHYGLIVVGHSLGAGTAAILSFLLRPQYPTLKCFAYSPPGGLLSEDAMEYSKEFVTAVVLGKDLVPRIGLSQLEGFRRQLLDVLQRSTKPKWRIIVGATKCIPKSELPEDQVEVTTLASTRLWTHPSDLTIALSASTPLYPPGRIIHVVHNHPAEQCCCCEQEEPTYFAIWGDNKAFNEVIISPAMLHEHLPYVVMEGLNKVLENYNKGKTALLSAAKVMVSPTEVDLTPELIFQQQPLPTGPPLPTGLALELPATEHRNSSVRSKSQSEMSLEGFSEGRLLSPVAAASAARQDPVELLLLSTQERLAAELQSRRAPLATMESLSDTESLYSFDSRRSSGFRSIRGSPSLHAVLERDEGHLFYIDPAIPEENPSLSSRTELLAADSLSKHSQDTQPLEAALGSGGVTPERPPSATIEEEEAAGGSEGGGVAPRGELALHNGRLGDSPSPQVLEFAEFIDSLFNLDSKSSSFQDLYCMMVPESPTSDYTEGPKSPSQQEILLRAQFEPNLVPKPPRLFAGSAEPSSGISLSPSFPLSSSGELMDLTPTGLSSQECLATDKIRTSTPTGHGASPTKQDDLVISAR

MAGL [7] = molecular target: T3, MAGL; test: hMAGL coumarin substrate fluorescence assay; type: biochemical; parameters: The N-terminal his-tagged full length human monoacylglycerol lipase used; His (N); made in house; host or cells: E. coli; conditions: read-out: hMAGL inhibition at 10 μM (%)

Row | SMILES | stability to uncatalyzed hydrolysis at neutral pH [1] | quality as substrate for enzymatic hydrolysis (hDAGLα [2]) | Lipoprotein Lipase (Bacterial) inhibition at 10 μM (%) [3] | inhibition at 10 µM [4] | binding to the cannabinoid receptors, previous reports (cannabinoid receptors) | inhibition of MAGL activity reported in the literature (MAGL [5]) | inhibition at 10 µM (hDAGLα [6]; read-out: hDAGLα inhibition at 10 μM detergent free (%), FRET) | inhibition at 10 µM (hDAGLα [6]; read-out: hDAGLα inhibition at 10 μM detergent free (%), FRET, marker °) | inhibition at 10 µM (mDAGLα) | inhibition at 10 µM (MAGL [7])
1 | COC[C@@H](COC(=O)CCCCCNc1ccc([N+](=O)[O-])cc1[N+](=O)[O-])OC(=O)CCCc1ccc2ccc3cccc4ccc1c2c34 [Compound 17, 1-((2,4-Dinitrophenyl)amino)hexanoyl-2-pyrenebutanoyl-3-methyl-sn-glycerol] | stable | best enzyme substrates | – | – | – | – | – | – | – | –
2 | COC[C@@H](COC(=O)CCCc1ccc2ccc3cccc4ccc1c2c34)OC(=O)CCCCCNc1ccc([N+](=O)[O-])cc1[N+](=O)[O-] [Compound 18, 1-Pyrenebutanoyl-2-((2,4-dinitrophenyl)amino)hexanoyl-3-methyl-sn-glycerol] | stable | best enzyme substrates | – | – | – | – | – | – | – | –
3 | NC(=O)c1cccc(-c2cccc(OC(=O)NC3CCCCC3)c2)c1 [URB597] | – | – | 21% | 68% | did not bind | poor inhibitors | 22% | 7% | < 0% | 18%
